{"source": "patent US4871774A", "about": "“Medical treatment” (The Boots Company PLC, priority 1987, dated 1989)", "key": {"[1]": {"system": "uptake of radiolabelled dopamine into rat striatal synaptosomes", "assay": "Inhibition of dopamine uptake in vitro by plasma from drug treated rats (3H-dopamine, rat striatal synaptosomes)", "assay_type": "biochemical, rat (CD, Sprague-Dawley)", "conditions": "for % Inhibition of dopamine uptake in Individual Rats: hydrochloride monohydrate; for % Inhibition of dopamine uptake, Mean (±SEM): mean of 4 rats", "experimental": "(3) Inhibition of dopamine uptake in vitro by plasma from drug treated rats\nTo obtain the synaptosomes, untreated male CD rats (Sprague-Dawley 200-250 g; Charles River) were killed by cervical dislocation, the brains removed and the striata of two or three rats dissected out and placed in ice-cold saline. The pooled tissue was homogenised in 20 volumes of ice-cold 0.32M sucrose in a glass-teflon homogeniser with 0.35 mm clearance. The homogenate was spun at 1500×g for 10 minutes in a refrigerated (4° C.) Heraeus Christ minicentrifuge. The supernatant was transferred into a polypropylene sterilin tube and stored on ice for as short a time as possible prior to use in the radiolabelled dopamine uptake assay.\nControl rats were orally administered distilled water. After one hour the rats were killed by CO2 inhalation overdose, the chest cavity opened and blood immediately removed from the heart and mixed with an anticoagulant solution.\nThe rat blood/anticoagulant mixture was spun at 5750×g for 20 minutes in a Heraeus Christ minicentrifuge at room temperature. The plasma was removed and kept at room temperature for as short a time as possible before analysis in the radiolabelled dopamine uptake assay. The fresh plasma samples from the rat study were initially maintained at 37° C. for 10-15 minutes before starting the assay. 300 μl of each plasma sample was added to six 5 ml polypropylene tubes already containing 50 μl of saline at room temperature. Four of these tubes were incubated at 37° C. to assess active radiolabelled dopamine uptake. The other two tubes were immediately cooled to c.3° C. and maintained at this temperature to account for passive radiolabelled dopamine uptake.\n(a) Active uptake of radiolabelled dopamine\nTo each tube at 37° C. was added 100 μl of fresh striatal synaptosomes, prepared as above. These tubes were then agitated in the water bath at 37° C. for 5 minutes prior to the addition of 50 μl ice-cold ^3 H-dopamine solution (final concentration 1×10^-7 M) (Amersham International). The reaction was stopped after a further 5 minutes of agitation and incubation at 37° C. by removing the tubes from the water bath and immediately adding 4 ml of ice-cold saline. The contents of the tube were then rapidly filtered over Whatman glass fibre (GF/F) filters supported on a Millipore 1225 manifold linked to an Edwards 2-stage vacuum pump. The tubes were rinsed with 2×4 ml of ice-cold saline and this was also rapidly filtered. Finally, each manifold well was washed with 4 ml of ice-cold saline.\n(b) Passive uptake of radiolabelled dopamine\nTo the two tubes maintained at c.3° C. was added 100 μl of fresh striatal synaptosomes followed by 50 μl of ice-cold ^3 H-dopamine solution (final concentration 1×10^-7 M). The \"reaction\" in these tubes was terminated by the addition of 4 ml ice-cold saline and the samples were then rapidly filtered and washed as described in (a) above.\nAll filters were placed into glass vials and 10 ml of Packard ES-299 scintillation fluid added. Filters were allowed to solubilise for at least 1 hour before the radioactivity accumulated was assayed by liquid scintillation counting.\n(c) Calculation of percentage inhibition of ^3 H-dopamine uptake\nThe amount of passive uptake of ^3 H-dopamine at c.3° C. (measured in cpm) was subtracted from the amount of active ^3 H-dopamine uptake at 37° C. (measured in cpm) to derive net ^3 H-dopamine uptake. The resulting value was then expressed as a percentage (X) of the net ^3 H-dopamine uptake recorded for control plasma. The latter plasma samples were obtained from distilled water-treated control rats. The percentage inhibition value (X) was calculated using the following formula: [formula]\nMean [±1 standard error of the mean (SEM)] percentage inhibition was then determined for each dose."}, "[2]": {"system": "brain DOPAC (turnover of dopamine)", "assay": "Turnover of dopamine in rodent brains by determination of DOPAC concentrations (rat)", "assay_type": "in vivo, rat (Sprague-Dawley)", "conditions": "10 mg/kg oral, 2 h", "text": "(7) Measurement of the turnover of dopamine in rodent brains by determination of DOPAC concentrations following drug administration\nInhibition of dopamine reuptake in the brain reduces the rate at which dopamine is synthesised and metabolised (the turnover rate). This can be assessed by measuring the amount of the dopamine metabolite DOPAC (dihydroxyphenylacetic acid) which accumulates in the brains of rats and mice. In addition, the administration of probenecid blocks active transport of DOPAC out of the brain. The subsequent rise in brain DOPAC concentrations is attenuated by drugs which inhibit dopamine reuptake.\nOne group of animals was killed two hours later. An additional group was administered probenecid (200 mg/kg i.p.; Sigma Chemical Co.) 30 minutes after the drug and then killed after a further 90 minutes. The animals were killed by decapitation and brains were rapidly removed and dissected on an ice-chilled porcelain plate. They were cut longitudinally along the midline; one half was retained for whole brain analysis while the striatum was dissected from the other. Tissues were immediately frozen in liquid N2 and stored over dry ice (-80° C.) until assay. Whole brain tissue was homogenised in 5 volumes 0.4M perchloric acid (containing 0.01% (w/v) Na2 S2 O3, 0.1% (w/v) EDTA) and striata in 600 μl using a Polytron (setting 6; 20 seconds) fitted with a microprobe (PT-7). Samples were then centrifuged at 30,000×g (whole brain samples) or at 3,500×g (striata) using a microfuge (Beckman) set up to take 1200 μl polypropylene tubes. Aliquots (50 μl) of the clear supernatants were then injected automatically into the chromatographic system for the separation and quantification of DOPAC.\nHigh pressure liquid chromatography (HPLC) combined with electrochemical detection (ECD) was employed to assay DOPAC. A mobile phase (0.1M CH3 OH (84:16%) containing 0.1% octanesulphonic acid, 0.1% EDTA and 0.01% Na2 S2 O3) was delivered by a Dupont 870 pump module at a flow-rate of 1.0 ml/min to a reverse-phase analytical column (25×0.4cm) and guard column (both packed with 5 μm Spherisorb ODS 2) maintained at 45° C. in a thermostatically controlled cabinet. Automatic sample injection was provided by a WISP 710B module (Waters Associates) and ECD was performed using a Bioanalytical Systems LC4A controller and cell, with a glassy carbon electrode maintained at +0.65 v versus a Ag-AgCl reference electrode. The controller was set at 20 nA full-scale and output from the cell recorded using a Spectra-Physics 4100 automatic computing integrator. Quantification of DOPAC was effected by the computing integrator after calibration of the HPLC-ECD system using DOPAC of known concentration and including isoprenaline as an internal standard. […]"}, "[3]": {"conditions": "plasma 1 h after 100 mg/kg oral"}}, "note": "Values joined by “and” are separate entries in the source; they are usually repeats but may differ in a detail not shown here. Identical values can stand only once.", "data": [{"smiles": "CC(C)CC(N(C)C)C1(c2ccc(Cl)cc2)CCC1.Cl.O", "note": "(centres unmarked) [N,N-dimethyl-1-[1-(4-chlorophenyl)cyclobutyl]-3-methylbutylamine hydrochloride monohydrate]", "values": [{"measurement": "% Inhibition of dopamine uptake in Individual Rats", "setting": "[1]; plasma 1 h after 10 mg/kg oral", "value": "33% and 23% and 13% and 17%"}, {"measurement": "% Inhibition of dopamine uptake, Mean (±SEM)", "setting": "[1]; plasma 1 h after 10 mg/kg oral", "value": "22.8 ± 5.5", "unit": "%"}, {"measurement": "% Inhibition of dopamine uptake in Individual Rats", "setting": "[1]; plasma 1 h after 30 mg/kg oral", "value": "54% and 35% and 49% and 42%"}, {"measurement": "% Inhibition of dopamine uptake, Mean (±SEM)", "setting": "[1]; plasma 1 h after 30 mg/kg oral", "value": "45.0 ± 4.1", "unit": "%"}, {"measurement": "% Inhibition of dopamine uptake in Individual Rats", "setting": "[1]; [3]", "value": "53% and 59% and 67% and 55%"}, {"measurement": "% Inhibition of dopamine uptake, Mean (±SEM)", "setting": "[1]; [3]", "value": "58.5 ± 3.1", "unit": "%"}, {"measurement": "inhibition of radiolabelled dopamine uptake (in words)", "setting": "[1]; plasma from rats, 10, 30 or 100 mg/kg oral", "value": "dose-dependent inhibition of radiolabelled dopamine uptake"}, {"measurement": "Brain DOPAC Levels", "setting": "[2]; A (drug alone), striatum, control 921 ± 56", "value": "601 ± 17", "unit": "ng/g wet wt"}, {"measurement": "Brain DOPAC Levels", "setting": "[2]; A (drug alone), whole brain, control 62 ± 5", "value": "36 ± 4", "unit": "ng/g wet wt"}, {"measurement": "Brain DOPAC Levels", "setting": "[2]; B (with probenecid 200 mg/kg i.p.), striatum, control 1325 ± 79", "value": "920 ± 70", "unit": "ng/g wet wt"}, {"measurement": "Brain DOPAC Levels", "setting": "[2]; B (with probenecid 200 mg/kg i.p.), whole brain, control 169 ± 3", "value": "130 ± 9", "unit": "ng/g wet wt"}]}]}
